Results as given in patent US10034886B2, “GLP-1 receptor modulators” (Celgene International II SÀRL, priority 2014, dated 2018).

Each compound was assayed against T1, GLP-1R (Homo sapiens, UniProt P43220) (assay: EC20 GLP-1(9-36) PAM cAMP assay: dose response of compound in the presence of fixed concentration of GLP-1(9-36)). Settings: GLP-1R CRE-bla CHO-K1 cells, compound dose response with fixed concentration of GLP-1(9-36), read-out: EC20 GLP-1(9-36) PAM EC50.
T1 construct: host or cells: GLP-1R CRE-bla CHO-K1 cells
T1 sequence (P43220 24-463): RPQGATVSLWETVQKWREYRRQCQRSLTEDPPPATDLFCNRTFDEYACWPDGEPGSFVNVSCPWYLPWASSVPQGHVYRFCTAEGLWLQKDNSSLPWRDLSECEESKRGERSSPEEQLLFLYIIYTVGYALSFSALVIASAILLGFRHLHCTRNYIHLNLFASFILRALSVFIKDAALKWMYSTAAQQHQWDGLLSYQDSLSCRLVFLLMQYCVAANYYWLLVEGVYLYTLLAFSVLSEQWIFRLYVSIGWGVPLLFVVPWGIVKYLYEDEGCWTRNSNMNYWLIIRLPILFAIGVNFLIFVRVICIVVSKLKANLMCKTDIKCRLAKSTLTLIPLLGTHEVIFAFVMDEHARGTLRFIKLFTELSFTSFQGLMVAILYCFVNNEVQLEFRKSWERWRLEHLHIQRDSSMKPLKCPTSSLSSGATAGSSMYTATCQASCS
T1 sequence (P01275 100-127 partner limits assumed): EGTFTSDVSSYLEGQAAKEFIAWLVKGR
Type: cell-based
Procedure, shortened: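 Positive allosteric modulation read as cAMP accumulation: compound titrations (12 points) combined with an EC20 level of GLP-1(9-36) on CHO-K1 GLP-1R CRE-bla cells, IBMX present, 30 min, 37 °C, pH 7.4 buffer. Luminescence converted to cAMP via standards; non-linear fit gave EC50 and Emax.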

First: CCCc1ccc(C2CCN(c3cnc(-c4ccc(C[C@H](NC(=O)c5ccc(C(C)(C)C)s5)C(=O)N5CC(C(=O)O)C5)cc4)nc3)CC2)cc1 [Compound 1432]
Second: CCCCCCCOc1ccc(-c2cnc(-c3ccc(C[C@@H](NC(=O)c4ccc(C(C)(C)C)s4)C(=O)N4CC(C(=O)O)C4)cc3)nc2)cc1 [Compound 1271]
The EC50 of the first is lower: < 800 nM for the first, 800 to 2500 nM for the second.

`CCC[C@H]1CC[C@H](C2CCN(c3cnc(-c4ccc(C[C@H](NC(=O)c5ccc(C(C)(C)C)s5)C(=O)N[C@@H](CCCNC(=N)N)C(=O)O)cc4)nc3)CC2)CC1` [Compound 1465] and `CCC[C@H]1CC[C@H](C2CCN(c3cnc(-c4ccc(C[C@H](NC(=O)c5ccc(C(C)(C)C)s5)C(=O)N[C@H](CC(N)=O)C(=O)O)cc4)nc3)CC2)CC1` [Compound 1460] cannot be ordered by EC50: < 800 nM for the first, < 800 nM for the second.

`CCC[C@H]1CC[C@H](C2CCN(c3cnc(-c4ccc(C[C@H](NC(=O)c5ccc(C(C)(C)C#N)cc5)C(=O)N5CC(C(=O)O)C5)cc4)nc3)CC2)CC1` [Compound 1526] and `CCC[C@H]1CC[C@H](C2CCN(c3cnc(-c4ccc(C[C@H](NC(=O)c5ccc(C(C)(C)C)cc5)C(=O)N5CC(C(=O)O)C5)cc4)nc3)CC2)CC1` [Compound 1414] cannot be ordered by EC50: < 800 nM for the first, < 800 nM for the second.

`C[C@@H](NC(=O)[C@H](Cc1ccc(-c2ncc(C#Cc3ccc(F)cc3)cn2)cc1)NC(=O)c1ccc(C(C)(C)C)s1)C(=O)O` [Compound 1275] and `Cc1ccc(/C=C/c2cnc(-c3ccc(C[C@H](NC(=O)c4ccc(C(C)(C)C)s4)C(=O)N[C@H](C)C(=O)O)cc3)nc2)cc1` [Compound 1264] fall in the same range of EC50: 800 to 2500 nM for the first, 800 to 2500 nM for the second.

Compared with `CC(C)CCCOc1ccc(-c2cnc(-c3ccc(C[C@H](NC(=O)c4ccc(C(C)C)cc4)C(=O)N4CC(C(=O)O)C4)cc3)nc2)cc1` [Compound 1227], `C[C@@H](NC(=O)[C@H](Cc1ccc(-c2ncc(/C=C/c3ccsc3)cn2)cc1)NC(=O)c1ccc(C(C)(C)C)s1)C(=O)O` [Compound 1257] is higher in EC50: 800 to 2500 nM for the first, 2500 to 5000 nM for the second.

`CCC[C@H]1CC[C@H](C2CCN(c3cnc(-c4ccc(CC(NC(=O)c5ccc(C(C)(C)C)s5)C(=O)NS(=O)(=O)CC(C)(C)C)cc4)nc3)CC2)CC1` (some centres unmarked) [Compound 1544] and `CCC[C@H]1CC[C@H](C2CCN(c3cnc(-c4ccc(CC(NC(=O)c5ccc(C(C)(C)C)s5)C(=O)NS(=O)(=O)CC(=O)OC)cc4)nc3)CC2)CC1` (some centres unmarked) [Compound 1543] cannot be ordered by EC50: < 800 nM for the first, < 800 nM for the second.

`CCC[C@H]1CC[C@H](C2CCN(c3cnc(-c4ccc(CC(NC(=O)c5ccc(C(C)(C)C)s5)C(=O)NS(=O)(=O)CCC5CCC5)cc4)nc3)CC2)CC1` (some centres unmarked) [Compound 1541] and `C[C@@H](NC(=O)[C@H](Cc1ccc(-c2ncc(/C=C/c3cc(C(F)(F)F)cc(C(F)(F)F)c3)cn2)cc1)NC(=O)c1ccc(C(C)(C)C)s1)C(=O)O` [Compound 1261] fall in the same range of EC50: 800 to 2500 nM for the first, 800 to 2500 nM for the second.

Same assay, conditions: dose response of compound in presence of fixed concentration of GLP-1(9-36), GLP-1R CRE-bla CHO-K1 cells, read-out: EC20 GLP-1(9-36) PAM EC50

`CCCCCCCOc1ccc(-c2cnc(-c3ccc(C[C@H](NC(=O)c4ccc(C(C)(C)C)s4)C(=O)NC(C(=O)O)C(O)c4cccs4)cc3)nc2)cc1` (some centres unmarked) [Compound 888] and `CCCCCCCOc1ccc(-c2cnc(-c3ccc(C[C@H](NC(=O)c4ccc(C(C)(C)C)s4)C(=O)N[C@@H](C(=O)O)[C@@H](O)c4ccccc4)cc3)nc2)cc1` [Compound 667, (2R,3S)-2-((S)-2-(5-(tert-butyl)thiophene-2-carboxamido)-3-(4-(5-(4-(heptyloxy)phenyl)pyrimidin-2-yl)phenyl)propanamido)-3-hydroxy-3-phenylpropanoic acid] fall in the same range of EC50: 800 to 2500 nM for the first, 800 to 2500 nM for the second.

First: CCCCCCOc1ccc(-c2cnc(-c3ccc(C[C@H](NC(=O)c4ccc(C(C)(C)C)s4)C(=O)NC(C(=O)O)C(O)c4ccccc4)cc3)nc2)cc1 (some centres unmarked) [Compound 943]
Second: CCCCCCCOc1ccc(-c2cnc(-c3ccc(C[C@H](NC(=O)c4ccc(C(C)(C)C)s4)C(=O)N[C@@H](C(=O)O)[C@H](C)O)cc3)nc2)cc1 [Compound 664]
The EC50 of the first is lower: 800 to 2500 nM for the first, 2500 to 5000 nM for the second.

Compared with `CC(C)(C)c1ccc(C(=O)N[C@@H](Cc2ccc(-c3ncc(-c4ccc(OC5CCCC5)cc4)cn3)cc2)C(=O)NCCC(=O)O)cc1` [Compound 688], `CCC(C)COc1ccc(-c2cnc(-c3ccc(C[C@H](NC(=O)c4ccc(C(C)(C)C)cc4)C(=O)NCCC(=O)O)cc3)nc2)cc1` (some centres unmarked) [Compound 473] is higher in EC50: 2500 to 5000 nM for the first, 5000 to 10000 nM for the second. The first is the more potent here.

First: CCCCCCCOc1ccc(-c2cnc(-c3ccc(C[C@H](NC(=O)c4ccc(C(C)(C)C)cc4)C(=O)N[C@@H](CC)C(=O)O)cc3)nc2)cc1 [Compound 499]
Second: CCCCCCCOc1ccc(-c2cnc(-c3ccc(C[C@H](NC(=O)c4ccc(C(C)(C)C)cc4)C(=O)N[C@H](C(=O)O)[C@@H](C)CC)cc3)nc2)cc1 [Compound 449]
The EC50 of the first is lower: < 800 nM for the first, 800 to 2500 nM for the second. The first is the more potent here.

`Cc1ccc(/C=C/c2cnc(-c3ccc(C[C@H](NC(=O)c4ccc(C(C)(C)C)s4)C(=O)N4CC[C@H](C(=O)O)C4)cc3)nc2)cc1` [Compound 1085] and `CCc1ccc(/C=C/c2cnc(-c3ccc(C[C@H](NC(=O)c4ccc(C(C)(C)C)s4)C(=O)N4CC(C(=O)O)C4)cc3)nc2)cc1` [Compound 1092] fall in the same range of EC50: 800 to 2500 nM for the first, 800 to 2500 nM for the second.

Compared with `CCCCCCCOc1ccc(-c2cnc(-c3ccc(C[C@H](NC(=O)c4ccc(O)c(F)c4)C(=O)N[C@H](C)C(=O)O)cc3)nc2)cc1` [Compound 983], `CCCCCCCOc1ccc(-c2cnc(-c3ccc(C[C@H](NC(=O)c4ccc(C5CC5)s4)C(=O)N[C@H](C)C(=O)O)cc3)nc2)cc1` [Compound 842] is lower in EC50: 5000 to 10000 nM for the first, 800 to 2500 nM for the second. The second is the more potent here.

Compared with `C[C@@H](NC(=O)[C@H](Cc1ccc(-c2ncc(-c3ccc(C(=O)c4ccccc4)cc3)cn2)cc1)NC(=O)c1ccc(C(C)(C)C)s1)C(=O)O` [Compound 993], `C[C@@H](NC(=O)[C@H](Cc1ccc(-c2ncc(-c3cc4ccccc4s3)cn2)cc1)NC(=O)c1ccc(C(C)(C)C)s1)C(=O)O` [Compound 1024] is lower in EC50: 2500 to 5000 nM for the first, 800 to 2500 nM for the second.

`CCCCCCCOc1ccc(-c2cnc(-c3ccc(C[C@H](NC(=O)c4ccc(C(C)(C)C)s4)C(=O)NC(C(=O)O)C(O)C4CCCO4)cc3)nc2)cc1` (some centres unmarked) [Compound 916] and `CCCCCCCOc1ccc(-c2cnc(-c3ccc(C[C@H](NC(=O)c4ccc(C(C)(C)C)s4)C(=O)NC(C(=O)O)C(O)c4cnccn4)cc3)nc2)cc1` (some centres unmarked) [Compound 917] fall in the same range of EC50: 800 to 2500 nM for the first, 800 to 2500 nM for the second.

First: CCCCCCCOc1ccc(-c2cnc(-c3ccc(C[C@H](NC(=O)c4ccc(C(C)(C)C)s4)C(=O)N[C@H](C)C(=O)O)cc3)nc2)nc1 [Compound 1063]
Second: CCCCCCCOc1ccc(-c2cnc(-c3ccc(C[C@H](NC(=O)c4ccc(C(C)(C)C)s4)C(=O)N[C@H]4C[C@@H](C(=O)O)C4)cc3)nc2)cc1 [Compound 872]
The EC50 of the first is lower: < 800 nM for the first, 800 to 2500 nM for the second.

`CCCCCCCOc1ccc(-c2cnc(-c3ccc(C[C@H](NC(=O)c4ccc(C(C)(C)C)cc4)C(=O)NCC(O)C(=O)O)cc3)nc2)cc1` (some centres unmarked) [Compound 554] and `CCCCCCCOc1ccc(-c2cnc(-c3ccc(C[C@H](NC(=O)c4ccc(C(C)(C)C)cc4)C(=O)NC(Cn4cncn4)C(=O)O)cc3)nc2)cc1` (stereo partly drawn) [Compound 467, 2-((S)-2-(4-(tert-butyl)benzamido)-3-(4-(5-(4-(heptyloxy)phenyl)pyrimidin-2-yl)phenyl)propanamido)-3-(1H-1,2,4-triazol-1-yl)propanoic acid] cannot be ordered by EC50: < 800 nM for the first, < 800 nM for the second.

Compared with `CCCCCCCOc1ccc(-c2cnc(-c3ccc(C[C@H](NC(=O)c4ccc(C(C)(C)C)s4)C(=O)NCCCN4CCN(C)CC4)cc3)nc2)cc1` [Compound 961], `CCCCCCCOc1ccc(-c2cnc(-c3ccc(C[C@H](NC(=O)c4ccc(C(C)(C)C)s4)C(=O)NCC4CCNC4)cc3)nc2)cc1` (some centres unmarked) [Compound 390] is lower in EC50: 2500 to 5000 nM for the first, 800 to 2500 nM for the second.

Compared with `CCCCCCCOc1ccc(-c2cnc(-c3ccc(C[C@H](NC(=O)c4ccc(C(C)(C)C)cc4)C(=O)NC(C(=O)O)c4cccc(OC)c4)cc3)nc2)cc1` (some centres unmarked) [Compound 566], `COc1ccc(-c2cnc(-c3ccc(C[C@H](NC(=O)c4ccc(C(C)(C)C)cc4)C(=O)N[C@H](C)C(=O)O)cc3)nc2)cc1` [Compound 800] is higher in EC50: < 800 nM for the first, 5000 to 10000 nM for the second. The first is the more potent here.

First: Cc1cc(C)cc(-c2cnc(-c3ccc(C[C@H](NC(=O)c4ccc(C(C)(C)C)s4)C(=O)N[C@H](C)C(=O)O)cc3)nc2)c1 [Compound 1042]
Second: CC(C)(C)c1ccc(C(=O)N[C@@H](Cc2ccc(-c3ncc(-c4ccc(C5CCC6(CC5)OCCO6)cc4)cn3)cc2)C(=O)N2CC(C(=O)O)C2)s1 [Compound 1186]
The EC50 of the first is higher: 5000 to 10000 nM for the first, < 800 nM for the second.

`CCCCCCCOc1ccc(-c2cnc(-c3ccc(C[C@H](NC(=O)c4ccc(C(C)(C)C)s4)C(=O)N4CC(C(=O)NS(=O)(=O)CC(=O)OC)C4)cc3)nc2)cc1` [Compound 654, methyl (S)-2-(N-(1-(2-(5-(tert-butyl)thiophene-2-carboxamido)-3-(4-(5-(4-(heptyloxy)phenyl)pyrimidin-2-yl)phenyl)propanoyl)azetidine-3-carbonyl)sulfamoyl)acetate] and `CCCCCCCOc1ccc(-c2cnc(-c3ccc(C[C@H](NC(=O)c4ccc(C(C)(C)C)s4)C(=O)N4CCC[C@H]4C(=O)NCC(=O)O)cc3)nc2)cc1` [Compound 493] cannot be ordered by EC50: < 800 nM for the first, < 800 nM for the second.

`CCCCCCCOc1ccc(-c2cnc(-c3ccc(C[C@H](NC(=O)c4ccc(CCCC)cc4)C(=O)N4CC[C@H](C(=O)O)C4)cc3)nc2)cc1` [Compound 850] and `CCCCCCCOc1ccc(-c2cnc(-c3ccc(C[C@H](NC(=O)c4ccc(C(C)(C)CC)cc4)C(=O)N4CC[C@H](C(=O)O)C4)cc3)nc2)cc1` [Compound 859] fall in the same range of EC50: 2500 to 5000 nM for the first, 2500 to 5000 nM for the second.

Compared with `CCCCCCCOc1ccc2nc(-c3ccc(C[C@H](NC(=O)c4ccc(C(C)(C)C)cc4)C(=O)O)cc3)ccc2c1` [Compound 671, (S)-2-(4-(tert-butyl)benzamido)-3-(4-(6-(heptyloxy)quinolin-2-yl)phenyl)propanoic acid], `CCCCCCCOc1ccc(-c2cnc(-c3ccc(C[C@H](NC(=O)c4ccc(C5CC5)s4)C(=O)N4CC[C@H](C(=O)O)C4)cc3)nc2)cc1` [Compound 865] is lower in EC50: 2500 to 5000 nM for the first, 800 to 2500 nM for the second. The second is the more potent here.

`CC(C)(C)c1ccc(C(=O)N[C@@H](Cc2ccc(-c3ncc(-c4nc(CC5CCCCC5)no4)cn3)cc2)C(=O)NCCC(=O)O)cc1` [Compound 747] showed an EC50 of 2500 to 5000 nM.
